From US10702506B2, “Small molecule inhibitors of pendrin ion exchange and pharmaceutical compositions” (THE REGENTS OF THE UNIVERSITY OF CALIFORNIA, priority 2016, dated 2020)

How the values were obtained:
human SLC26A3 = target: T1, human SLC26A3 (Homo sapiens, UniProt P40879); experiment: SCN− transport YFP quenching assay in SLC26A3-expressing COS7 cells; assay type: cell-based; details: 25 μM, 30 min; 70 mM SCN− gradient
T1 construct: host or cells: COS7 fibroblasts, transient (Lipofectamine 2000), with EYFP-HIF
T1 sequence (P40879 1-764): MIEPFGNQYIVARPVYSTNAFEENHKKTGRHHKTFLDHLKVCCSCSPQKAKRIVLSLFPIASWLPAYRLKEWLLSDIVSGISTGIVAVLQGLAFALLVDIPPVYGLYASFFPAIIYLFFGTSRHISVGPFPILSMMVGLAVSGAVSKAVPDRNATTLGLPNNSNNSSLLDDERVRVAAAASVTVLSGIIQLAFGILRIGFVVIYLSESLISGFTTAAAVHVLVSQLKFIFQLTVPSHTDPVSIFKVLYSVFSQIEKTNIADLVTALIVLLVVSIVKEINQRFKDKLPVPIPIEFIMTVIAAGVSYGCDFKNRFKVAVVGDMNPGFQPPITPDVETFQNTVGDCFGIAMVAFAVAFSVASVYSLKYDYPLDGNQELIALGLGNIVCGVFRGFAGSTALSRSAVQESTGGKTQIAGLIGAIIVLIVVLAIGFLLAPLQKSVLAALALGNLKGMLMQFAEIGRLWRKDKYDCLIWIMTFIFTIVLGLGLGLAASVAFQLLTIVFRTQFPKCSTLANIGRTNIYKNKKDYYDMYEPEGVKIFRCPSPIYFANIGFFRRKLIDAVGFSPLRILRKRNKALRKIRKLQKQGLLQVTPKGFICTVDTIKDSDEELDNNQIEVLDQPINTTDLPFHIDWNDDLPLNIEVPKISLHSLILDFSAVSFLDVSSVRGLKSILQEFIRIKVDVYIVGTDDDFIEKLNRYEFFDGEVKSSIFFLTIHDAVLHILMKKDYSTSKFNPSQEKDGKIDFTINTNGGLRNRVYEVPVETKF
Procedure: SLC26A3 activity was measured using a SCN^− transport assay that produced YFP fluorescence quenching (FIG. 4B).
SLC26A3-mediated ion transport was measured in COS7 fibroblasts transiently transfected to express EYFP-HIF and human SLC26A3 (Origene, Rockville, Md.). COS7 cells were cultured in DMEM-H21 supplemented with 10% FBS, 2 mM glutamine, 100 U/ml penicillin and […] streptomycin and transfected using Lipofectamine 2000 (Invitrogen, Carlsbad, Calif.). SLC26A3-mediated transport was measured from EYFP-HIF fluorescence after addition of a NaSCN-substituted PBS solution to generate a 70 mM SCN^− gradient. Control experiments were done using COS-7 cells expressing EYFP-HIF alone.

[1] = test system: chronically furosemide-treated mice; experiment: Chronic furosemide treatment model in mice; assay type: in vivo; details: 10 mg/kg after 8 days furosemide 20 mg/kg twice a day, 3 h urine
Procedure: Because chronic loop diuretic treatment upregulates renal pendrin expression, which might potentiate the diuretic efficacy of pendrin inhibition, the action of PDSinh-C01 in a chronic furosemide treatment model.
In chronic studies, mice were injected with 20 mg/kg furosemide (ip) twice a day for 8 days and then administered PDSinh-C01 (10 mg/kg) or vehicle at the time of the final furosemide dose. Urine was collected for 3 h as described above.
After 8 days of furosemide treatment, PDSinh-C01 further potentiated the furosemide effect.

murine pendrin = target: T2, murine pendrin (Mus musculus, UniProt Q9R155); experiment: BCECF intracellular pH assay of Cl−/HCO3− exchange in FRT cells expressing murine pendrin; assay type: cell-based
T2 construct: expressed in transfected cells
T2 sequence (Q9R155 1-780): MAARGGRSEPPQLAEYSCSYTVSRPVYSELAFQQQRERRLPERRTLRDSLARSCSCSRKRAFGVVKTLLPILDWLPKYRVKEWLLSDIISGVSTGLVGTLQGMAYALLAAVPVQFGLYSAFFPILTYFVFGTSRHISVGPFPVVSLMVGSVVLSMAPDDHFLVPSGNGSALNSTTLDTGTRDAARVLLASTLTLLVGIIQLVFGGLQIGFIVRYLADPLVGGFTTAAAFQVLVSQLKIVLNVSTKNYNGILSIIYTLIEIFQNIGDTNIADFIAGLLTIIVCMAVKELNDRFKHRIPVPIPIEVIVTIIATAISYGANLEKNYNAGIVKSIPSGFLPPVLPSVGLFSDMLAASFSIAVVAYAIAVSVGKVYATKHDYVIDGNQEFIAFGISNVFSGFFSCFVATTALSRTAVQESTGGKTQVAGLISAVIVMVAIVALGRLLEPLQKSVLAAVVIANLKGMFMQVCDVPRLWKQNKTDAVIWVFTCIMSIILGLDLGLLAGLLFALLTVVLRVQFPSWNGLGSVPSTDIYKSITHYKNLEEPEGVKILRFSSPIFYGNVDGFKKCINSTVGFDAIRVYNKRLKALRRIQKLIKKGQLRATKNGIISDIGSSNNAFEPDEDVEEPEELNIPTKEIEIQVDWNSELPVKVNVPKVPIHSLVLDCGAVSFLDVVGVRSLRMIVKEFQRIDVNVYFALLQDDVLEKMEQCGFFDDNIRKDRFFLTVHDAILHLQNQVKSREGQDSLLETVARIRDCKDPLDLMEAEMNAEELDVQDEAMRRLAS
Procedure: Pendrin-mediated exchange of Cl^− with SCN^−, I^− or NO3^− was measured from the kinetics of YFP fluorescence quenching in a BMG FLUOstar Omega platereader. Pendrin/YFP-expressing FRT cells were washed in PBS and transport measured following a 70-mM gradient of SCN^−, I^− or NO3^−. Pendrin-mediated Cl^−/HCO3^− exchange was measured from the kinetics of cytoplasmic pH (pHi) using BCECF-AM (Invitrogen). Pendrin-expressing FRT cells in HCO3^−-containing buffer (in mM: 120 NaCl, 5 KCl, 1 CaCl2), 1 MgSO4, 10 glucose, 5 Hepes, 25 NaHCO3^−; pH 7.4; 95% O2/5% CO2 equilibrated) were exposed to a Cl^−-free buffer (gluconate replacing Cl^−) to drive Cl^− efflux and HCO3^− influx.
Pendrin-mediated Cl^−/HCO3^− exchange was measured from the kinetics of intracellular pH, using BCECF fluorescence as a cytoplasmic pH sensor, following extracellular addition of gluconate in HCO3^−/CO2-containing buffer to drive Cl-efflux, HCO3^− influx, and consequent cytoplasmic alkalinization (FIG. 7D). […] YFP-based fluorescence quenching assays in COS-7 cells were established to measure AE1 (Slc4a1), CLD (Slc26a3) and NCC (Slc12a3) activities. […] A YFP-V163S fluorescence quenching assay in FRT cells was used to measure NKCC1 activity in which cells equilibrated gluconate-substituted PBS buffer were exposed to a Cl^−-containing solution containing 75 mM Na^+ and 75 mM K^+.

inhibition of SLC26A3 SCN− transport (YFP quenching) (human SLC26A3)	IC50 (murine pendrin)	SMILES	increase in urine volume [1]
not significantly inhibited		Cn1nc(COc2cccc(F)c2)c2c1CCN(C(=O)Nc1ccc(Cl)cc1)C2 [PDSinh-A01]	
	~1200 nM	Cc1n[nH]c(-c2cc(S(=O)(=O)NC3CCCc4ccccc43)c(C)s2)c1C (stereo not drawn) [PDSinh-C01]	~60%
